Five molecules from patent publication US9079864B2, “Modulators of S1P receptors” (Allergan, Inc., priority 2010, dated 2015) can be followed below.

The target of this experiment is T1, human S1P1 receptor (Homo sapiens, UniProt P21453).
T1 construct: expressed in transfected cells; membranes used
The experiment is described as follows: GTP γ35S binding assay for S1P1 activity. It counts as biochemical. Also on record: % stimulation: reference not given here. To be noted: for % stimulation: S1P1 receptor, agonist-induced; for EC50: membranes of cells stably expressing S1P1 receptor, agonist mode, 0.08 to 5,000 nM. The method, then: Novel compounds were synthesized and tested for S1P1 activity using the GTP γ^35S binding assay. These compounds may be assessed for their ability to activate or block activation of the human S1P1 receptor in cells stably expressing the S1P1 receptor. GTP γ^35S binding was measured in the medium containing (mM) HEPES 25, pH 7.4, MgCl2 10, NaCl 100, dithiothreitol 0.5, digitonin 0.003%, 0.2 nM GTP γ^35S, and 5 μg membrane protein in a volume of 150 μl. Test compounds were included in the concentration range from 0.08 to 5,000 nM unless indicated otherwise. Membranes were incubated with 100 μM 5′-adenylylimmidodiphosphate for 30 min, and subsequently with 10 μM GDP for 10 min on ice. Drug solutions and membrane were mixed, and then reactions were initiated by adding GTP γ^35S and continued for 30 min at 25° C. Reaction mixtures were filtered over Whatman GF/B filters under vacuum, and washed three times with 3 mL of ice-cold buffer (HEPES 25, pH 7.4, MgCl2 10 and NaCl 100). Filters were dried and mixed with scintillant, and counted for ^35S activity using a β-counter. Agonist-induced GTP γ^35S binding was obtained by subtracting that in the absence of agonist. In case of antagonist assay, the reaction mixture contained 10 nM S1P in the presence of test antagonist at concentrations ranging from 0.08 to 5000 nM.
For orientation: GTPγS resists hydrolysis and so accumulates on activated G proteins.

T1 sequence (P21453 whole entry): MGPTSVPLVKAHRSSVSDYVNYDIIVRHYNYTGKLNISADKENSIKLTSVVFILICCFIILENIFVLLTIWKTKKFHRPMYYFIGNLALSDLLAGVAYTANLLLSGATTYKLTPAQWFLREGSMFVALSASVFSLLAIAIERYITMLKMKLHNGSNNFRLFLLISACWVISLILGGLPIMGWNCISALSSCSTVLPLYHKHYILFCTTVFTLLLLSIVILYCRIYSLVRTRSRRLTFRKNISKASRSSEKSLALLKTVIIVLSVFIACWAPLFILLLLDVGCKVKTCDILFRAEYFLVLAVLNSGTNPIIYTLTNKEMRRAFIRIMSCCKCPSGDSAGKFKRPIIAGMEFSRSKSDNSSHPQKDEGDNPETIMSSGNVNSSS

As usually defined, the EC50 is the midpoint of the concentration-response curve. `CC(C)Oc1ccc(C#Cc2ccc(Cn3ccnc3)cc2)cc1C#N` [Compound 1, 5-{[4-(1H-imidazol-1-ylmethyl)phenyl]ethynyl}-2-isopropoxybenzonitrile] registered a % stimulation of 67% and an EC50 of 6.3 nM.
`CC(C)Oc1ccc(C#Cc2ccc(CN3CCCC3)cc2)cc1C#N` [Compound 2, 2-isopropoxy-5-{[4-(pyrrolidin-1-ylmethyl)phenyl]ethynyl}benzonitrile] came in with a % stimulation of 110% and an EC50 of 365 nM.
The like results for `CC(C)Oc1ccc(C#Cc2ccc(Cn3ccnc3)cc2)cc1Cl` [Compound 3, 1-{4-[(3-chloro-4-isopropoxyphenyl)ethynyl]-benzyl}-1H-imidazole] were, in that order, 81% and 14.7 nM.
The molecule `Cc1cc(Cn2ccnc2)ccc1C#Cc1ccc(OC(C)C)c(C#N)c1` [Compound 4, 5-{[4-(1H-imidazol-1-ylmethyl)-2-methylphenyl]ethynyl}-2-isopropoxybenzonitrile] came in with a % stimulation of 70% and an EC50 of 3.1 nM.
`CC(C)Oc1ccc(C#Cc2ccc(Cn3ccnc3)cc2Cl)cc1C#N` [Compound 5, 5-{[2-chloro-4-(1H-imidazol-1-ylmethyl)phenyl]ethynyl}-2-isopropoxybenzonitrile]: the % stimulation came out at 108% and the EC50 turned out to be 7.52 nM.
